According to patent publication US20080171716A1, “NUCLEIC ACID MODULATION OF TOLL-LIKE RECEPTOR-MEDIATED IMMUNE STIMULATION” (Protiva Biotherapeutics, Inc., priority 2006, published 2008):
m = 2'-O-methyl; r = 2'-OH (RNA)

Tests used:
TLR7/8 = assay: Cytokine induction in human PBMCs by immunostimulatory RNA, alone or co-formulated with modified ssRNA in the same SNALP/lipid particle; type: cell-based; conditions: for IFN-α production induced by the RNA alone: lipid-formulated RNA alone, doses 0.1 to 3 μg/ml; for IFN-α induction by NP ssRNA when co-formulated: 0.5 μg/ml NP ssRNA; for IFN-α induction by NP ssRNA when co-formulated / immunostimulatory effects (IFN-α induction) of ApoB antisense ssRNA when co-formulated: 1:1 molar ratio; for IFN-α levels induced by β-gal antisense ssRNA when co-encapsulated / IL-6 levels induced by β-gal antisense ssRNA when co-encapsulated: equimolar amounts in the same SNALP; for cytokine production from human PBMCs when co-formulated with immunostimulatory RNA: co-formulated with immunostimulatory ssRNA
Method: (§1) All RNA molecules used in this study were heated at 90° C. for 3 min. and then placed at 37° C. for 60 min. Non-denaturing PAGE analysis on a 20% polyacrylamide gel was performed to confirm that ssRNA molecules were intact and that no duplexes had formed upon heating. The RNA molecules were encapsulated in a SNALP formulation comprising PEG-cDMA:DLinDMA:cholesterol:DSPC in a 2:40:48:10 mol % ratio (2:40 SNALP), prepared using a syringe press process.
(§2) Fresh human peripheral blood mononuclear cells (PBMCs) were isolated and seeded at about 3×10^5 cells/well in a total volume of 180 μl. Next, 20 μl of the appropriate SNALP diluted in PBS or 10 μl of naked TLR agonist were added to the PBMCs. For time course experiments, PBMCs were pretreated with UmodS ssRNA or a control and the appropriate naked TLR agonist was added at 0, 0.5, or 2 hours after pretreatment. When the SNALP and naked TLR agonist were added separately, the SNALP was added first followed by the naked TLR agonist. At t=24 hr., the cell supernatant was harvested and IFN-α and/or IL-6 levels were determined using ELISA.
The ssRNA molecules used in this study were heated at 90° C. for 3 min. and then placed at 37° C. for 60 min to disrupt any potential secondary structure. Non-denaturing PAGE analysis on a 20% polyacrylamide gel was performed to confirm that ssRNA molecules were intact and that no duplexes had formed upon heating. siRNA duplexes were prepared by annealing equimolar concentrations of two deprotected and desalted ssRNA oligonucleotides using standard procedures. Formation of annealed siRNA duplexes was confirmed by non-denaturing PAGE analysis on a 20% polyacrylamide gel. The RNA molecules were encapsulated in a 2:40 SNALP formulation prepared using a syringe press process.
Fresh human peripheral blood mononuclear cells (PBMCs) were isolated and seeded at about 3×10^5 cells/well in a total volume of 180 μl. Next, 20 μl of the appropriate SNALP diluted in PBS were added to the PBMCs. At t=24 hr., the cell supernatant was harvested and IFN-α and/or IL-6 levels were determined using an enzyme-linked immunosorbent assay (ELISA). For example, IFN-α and IL-6 levels can be measured using a sandwich ELISA kit available from PBL Biomedical (Piscataway, N.J.) and eBioscience (San Diego, Calif.), respectively.
(§3) Lipid Encapsulation of RNA and ODN. RNA or ODN were encapsulated in liposomes by a process of spontaneous vesicle formation as described in Judge et al., supra, and Jeffs et al., Pharm. Res., 22:362-372 (2005).
(§4) Cell Isolation and Culture. Human PBMCs were isolated from whole blood of healthy donors by a standard Ficoll-Hypaque density centrifugation. Blood was diluted 1:1 with PBS, layered onto Ficoll-Paque Plus, and centrifuged at 1600 RPM for 30 min. PBMCs were washed in PBS twice followed by resuspension in complete media (RPMI 1640, 10% heat inactivated FBS, 2 mM L-glutamine, and 1% penicillin/streptomycin). PBMCs were plated at 2.5×10^5 cells/well in 96 well plates for cytokine induction assays.
(§5) Loxoribine (InvivoGen; San Diego, Calif.), polyIC (Sigma-Aldrich; St. Louis, Mo.), and formulated nucleic acids were diluted in PBS and added to either human PBMC or Flt3L DC cultures. Cells were incubated 24 h at 37° C. before supernatants were assayed for cytokines by ELISA.
(§6) Cytokine ELISA. All cytokines were quantified using sandwich ELISA kits according to the manufacturer's instructions. These were mouse and human IFN-α (PBL Biomedical; Piscataway, N.J.) and IL-6 (eBioscience; San Diego, Calif.).

TLR7 = molecular target: T1, TLR7 (Homo sapiens, UniProt Q9NYK1); assay: Loxoribine (TLR7 agonist)-induced IFN-α/IL-6 production in human PBMCs; type: cell-based; conditions: SNALP-encapsulated ssRNA added before naked agonist, supernatant at 24 hr, ELISA
T1 construct: Human PBMCs were isolated from whole blood of healthy donors; endogenous in cells; host or cells: primary human PBMCs from healthy donors
T1 sequence (Q9NYK1 27-1049): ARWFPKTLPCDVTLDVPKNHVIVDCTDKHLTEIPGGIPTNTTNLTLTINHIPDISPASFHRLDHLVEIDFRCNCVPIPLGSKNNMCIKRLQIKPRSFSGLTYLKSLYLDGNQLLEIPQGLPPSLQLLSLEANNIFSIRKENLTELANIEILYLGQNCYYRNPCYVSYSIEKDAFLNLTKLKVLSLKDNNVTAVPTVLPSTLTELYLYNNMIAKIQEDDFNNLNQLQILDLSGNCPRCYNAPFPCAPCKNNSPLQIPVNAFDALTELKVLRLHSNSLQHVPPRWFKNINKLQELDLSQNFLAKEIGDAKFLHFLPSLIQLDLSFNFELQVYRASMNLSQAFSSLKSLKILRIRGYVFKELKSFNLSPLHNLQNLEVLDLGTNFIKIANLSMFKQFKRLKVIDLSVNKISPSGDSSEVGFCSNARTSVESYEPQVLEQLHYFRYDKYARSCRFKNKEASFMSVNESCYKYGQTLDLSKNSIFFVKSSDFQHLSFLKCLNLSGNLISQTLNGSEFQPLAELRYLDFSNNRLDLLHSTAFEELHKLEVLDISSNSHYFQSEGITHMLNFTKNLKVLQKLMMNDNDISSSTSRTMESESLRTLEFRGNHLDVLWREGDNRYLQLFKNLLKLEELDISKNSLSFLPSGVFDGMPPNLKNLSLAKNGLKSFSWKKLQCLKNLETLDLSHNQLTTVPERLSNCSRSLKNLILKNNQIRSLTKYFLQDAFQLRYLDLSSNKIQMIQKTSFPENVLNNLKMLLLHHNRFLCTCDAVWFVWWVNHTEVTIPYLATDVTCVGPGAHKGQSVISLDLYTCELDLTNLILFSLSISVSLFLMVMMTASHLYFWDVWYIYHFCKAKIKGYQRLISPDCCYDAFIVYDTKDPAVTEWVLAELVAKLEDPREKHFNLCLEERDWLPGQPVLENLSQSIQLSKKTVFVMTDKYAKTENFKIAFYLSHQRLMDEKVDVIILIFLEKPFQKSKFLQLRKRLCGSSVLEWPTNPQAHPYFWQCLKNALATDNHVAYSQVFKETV
Method: as §1, §2, §3, §4, §5, §6

[1] = human PBMCs, co-formulated in the same SNALP, 24 h

## ApoB antisense ssRNA: immunostimulatory antisense ssRNA: AUUGGUAUUCAGUGUGAUGACAC (chemistry not given here) [reference compound]
TLR7/8; human PBMC cultures
  IFN-α production induced by the RNA alone: induced high levels of IFN-α
TLR7/8; human PBMCs, SNALP, 24 hr
  IFN-α production induced by ApoB antisense ssRNA in absence of modified ssRNA: 5000 to 6000 pg/mL

## βgal-mA: 2′OMe-adenosine modified RNA: CUmACmACmAmAmAUCmAGCGmAUUUU (CUACACAAAUCAGCGAUUUU; 2'-O-methyl at A, RNA at CGU, backbone not given here)
TLR7/8; human PBMCs, 24 h
  IFN-α induction by NP ssRNA when co-formulated: inhibits

## NP1496 UmodS: influenza NP1496 sense strand ssRNA with 2′OMe uridines: GGAmUCmUmUAmUmUmUCmUmUCGGAGUU (sense GGAUCUUAUUUCUUCGGAGUU; sugars from the 5' end rrrmrmmrmmmrmmrrrrrrr, backbone not given here)
TLR7/8; […]
  IFN-α production induced by the RNA alone: do not induce measurable IFN-α production
TLR7/8; human PBMCs, co-formulated in the same SNALP at 1:1, 1:2, or 1:4 molar ratio (up to 4-fold molar excess of agonist)
  immunostimulatory effects of ApoB antisense ssRNA at molar excess of agonist: antagonized
TLR7/8; [1]
  immunostimulatory effects (IFN-α induction) of ApoB antisense ssRNA when co-formulated: abolished
TLR7/8; human PBMCs, co-formulated in the same SNALP, 24 h, listed as NP-mU
  immunostimulatory effects (IFN-α induction) of ApoB antisense ssRNA when co-formulated: abrogated
TLR7/8; human PBMCs, co-formulated in the same SNALP, equimolar, 24 h
  immunostimulatory effects (IFN-α induction) of ApoB siRNA duplex when co-formulated: abrogated
TLR7/8; human PBMCs, 24 h
  IFN-α levels induced by β-gal antisense ssRNA when co-encapsulated: abrogated

## polyUmod10: 2′OMe-uridine homopolymer of 10 nucleotides in length (UUUUUUUUUU; all 2'-O-methyl, backbone not given here)
TLR7/8; human PBMCs
  cytokine production from human PBMCs when co-formulated with immunostimulatory RNA: significantly reduced cytokine induction, although inhibition with these shorter oligonucleotides was not absolute
TLR7/8; human PBMCs, 24 h
  IFN-α levels induced by β-gal antisense ssRNA when co-encapsulated: significantly reduced
  IL-6 levels induced by β-gal antisense ssRNA when co-encapsulated: significantly reduced
TLR7/8; human PBMCs, 24 h, listed as (mU)10
  IFN-α levels induced by β-gal antisense ssRNA when co-encapsulated: inhibit

## βgal-mC: 2′OMe-cytidine RNA: mCUAmCAmCAAAUmCAGmCGAUUUUU (CUACACAAAUCAGCGAUUUUU; 2'-O-methyl at C, RNA at AGU, backbone not given here)
TLR7/8; human PBMCs, 24 h
  IFN-α induction by NP ssRNA when co-formulated: not
TLR7/8; [1]
  immunostimulatory effects (IFN-α induction) of ApoB antisense ssRNA when co-formulated: do not inhibit

## Luc: unmodified Luc sense strand ssRNA: 5′GAUUAUGUCCGGUUAUGUAUU 3′ (sense GAUUAUGUCCGGUUAUGUAUU; RNA, backbone not given here) [reference compound]
TLR7/8; [1]
  immunostimulatory effects (IFN-α induction) of ApoB antisense ssRNA when co-formulated: high levels of IFN-α were still induced

## NP1496: unmodified NP1496 sense strand ssRNA: GGAUCUUAUUUCUUCGGAGUU (RNA, backbone not given here) [reference compound]
TLR7/8; [1]
  immunostimulatory effects (IFN-α induction) of ApoB antisense ssRNA when co-formulated: high levels of IFN-α were still induced

## β-gal [reference compound]
TLR7/8; [1]
  immunostimulatory effects (IFN-α induction) of ApoB antisense ssRNA when co-formulated: high levels of IFN-α were still induced

## NP-mC: 2′OMe-cytidine RNA: GGAUmCUUAUUUmCUUmCGGAGUU (GGAUCUUAUUUCUUCGGAGUU; 2'-O-methyl at C, RNA at AGU, backbone not given here)
TLR7/8; [1]
  immunostimulatory effects (IFN-α induction) of ApoB antisense ssRNA when co-formulated: do not inhibit

## βgal-mG: 2′OMe-guanosine modified RNA: CUACACAAAUCAmGCmGAUUUUU (CUACACAAAUCAGCGAUUUUU; sugars from the 5' end r12 m1 r1 m1 r6, backbone not given here)
TLR7/8; human PBMCs, 24 h
  IFN-α induction by NP ssRNA when co-formulated: inhibits

## polyUmod15: 2′OMe-uridine homopolymer of 15 nucleotides in length (UUUUUUUUUUUUUUU; all 2'-O-methyl, backbone not given here)
TLR7
  IL-6 levels induced by naked loxoribine: inhibited only IFN-α levels
  level of IFN-α induced by naked loxoribine: inhibited
TLR7/8; human PBMCs
  cytokine production from human PBMCs when co-formulated with immunostimulatory RNA: equally as effective at inhibiting cytokine production
TLR7/8; human PBMCs, 24 h
  IFN-α levels induced by β-gal antisense ssRNA when co-encapsulated: significantly reduced
  IL-6 levels induced by β-gal antisense ssRNA when co-encapsulated: significantly reduced
TLR7/8; human PBMCs, 24 h, listed as (mU)15
  IFN-α levels induced by β-gal antisense ssRNA when co-encapsulated: inhibit
